Results reported in US12435060B2, “Acylamino bridged heterocyclic compound, and composition and application thereof” (BEIJING SCITECH-MQ PHARMACEUTICALS LIMITED, priority 2019, dated 2025).

Test system: HT29 cells
Experiment: Inhibition of cell necrosis (CCK8 method), induced programmed necrosis of HT29 cells
Format: cell-based
Conditions: Homo sapiens, HT-29; rescue from necrosis induced by TNF-α 20 ng/mL, AT-406 1 μM, Z-VAD-FMK 20 μM; 16-20 hours; CCK-8, OD 450 nm
Method in brief: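 HT29 cells in McCOY's 5A with 10% FBS were pre-treated for 30 min with compound (9 fourfold steps, 25000 to 0.38 nM final, 0.25% DMSO). Necrosis was then induced with TNF-α 20 ng/mL, AT-406 1 μM and Z-VAD-FMK 20 μM for 16-20 h. Viability was read by CCK-8 OD450, normalized between uninduced and induced wells, and IC50 was curve-fitted.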

Row | Structure (SMILES) | IC50
1 | Cc1cc(F)cc(Cc2nnc(C(=O)Nc3cc(-c4cc(OCCCC(C)(C)O)ccc4Cl)ccn3)[nH]2)c1 [Example 344, N-(4-(2-chloro-5-((4-hydroxy-4-methylpentyl)oxy)phenyl)pyridin-2-yl)-5-(3-fluoro-5-methylbenzyl)-4H-1,2,4-triazole-3-carboxamide] | 100 to 1000 nM
2 | CC(C)(O)CCCCOc1ccc(Cl)c(-c2ccnc(NC(=O)c3nnc(CC4CCCCC4)[nH]3)c2)c1 [Example 370, N-(4-(2-chloro-5-((5-hydroxyl-5-methylhexyl)oxy)phenyl)pyridin-2-yl)-5-(cyclohexylmethyl)-4H-1,2,4-triazole-3-carboxamide] | ≤ 100 nM
3 | COCCOc1ccc(C)c(-c2ccnc(NC(=O)c3nnc(Cc4ccccc4)s3)c2)c1 [Example 130, 5-benzyl-N-(4-(5-(2-methoxyethoxy)-2-methylphenyl)pyridin-2-yl)-1,3,4-thiodiazol-2-carboxamide] | > 10000 nM
4 | CC(C)(O)CCCCOc1ccc(Cl)c(-c2cc(NC(=O)c3nnc(Cc4ccccc4F)[nH]3)ncc2F)c1 [Example 419, N-(4-(2-chloro-5-((5-hydroxyl-5-methylhexyl)oxy)phenyl)-5-fluoropyridin-2-yl)-5-(2-fluorobenzyl)-4H-1,2,4-triazole-3-carboxamide] | ≤ 100 nM
5 | COc1ccc(-c2ccnc(NC(=O)c3nnc(Cc4ccccc4)[nH]3)c2)cc1 [Example 9, 5-benzyl-N-(4-(4-methoxyphenyl)pyridin-2-yl)-4H-1,2,4-triazole-3-carboxamide] | > 10000 nM
6 | Cc1ccc(OCCCC(C)(C)O)cc1-c1ccnc(NC(=O)c2nnc(Cc3ccc(F)c(C(F)(F)F)c3)[nH]2)c1 [Example 212, 5-(4-fluoro-3-trifluoromethylbenzyl)-N-(4-(5-((4-hydroxy-4-methylpentyl)oxy)-2-methylphenyl)pyridin-2-yl)-4H-1,2,4-triazole-3-carboxamide] | 100 to 1000 nM
7 | CCOCCN(C)c1ccc(C)c(-c2ccnc(NC(=O)c3nnc(Cc4ccccc4)[nH]3)c2)c1 [Example 56, 5-benzyl-N-(4-(5-((2-ethoxyethyl)(methyl)amino)-2-methylphenyl)pyridin-2-yl)-4H-1,2,4-triazole-3-carboxamide] | 100 to 1000 nM
8 | Cc1cnc(NC(=O)c2nnc(CC3CCCCC3)[nH]2)cc1-c1cc(OCC2CCOCC2)ccc1Cl [Example 427, N-(4-(2-chloro-5-((tetrahydro-2H-pyran-4-yl)methoxy)phenyl)-5-methylpyridin-2-yl)-5-(cyclohexylmethyl)-4H-1,2,4-triazole-3-carboxamide] | 100 to 1000 nM
9 | CC(C)n1nc(C(F)(F)F)cc1-c1ccnc(NC(=O)c2nnc(Cc3ccccc3)[nH]2)c1 [Example 32, 5-benzyl-N-(4-(1-isopropyl-3-(trifluoromethyl)-1H-pyrazol-5-yl)pyridin-2-yl)-4H-1,2,4-triazole-3-carboxamide] | > 10000 nM
10 | CC(C)(O)CCCOc1ccc(Cl)c(-c2ccnc(NC(=O)c3nnc(CC4CCCCC4)[nH]3)c2)c1 [Example 357, N-(4-(2-chloro-5-((4-hydroxy-4-methylpentyl)oxy)phenyl)pyridin-2-yl)-5-(cyclohexylmethyl)-4H-1,2,4-triazole-3-carboxamide] | ≤ 100 nM
11 | CC(C)(O)CCCCOc1ccc(Cl)c(-c2ccnc(NC(=O)c3nnc(CC4CCCC4)[nH]3)c2)c1 [Example 369, N-(4-(2-chloro-5-((5-hydroxyl-5-methylhexyl)oxy)phenyl)pyridin-2-yl)-5-(cyclopentylmethyl)-4H-1,2,4-triazole-3-carboxamide] | ≤ 100 nM
12 | Cc1ccc(OCCOC(C)(C)C)cc1-c1ccnc(NC(=O)c2nnc(CC3CCCC3)o2)c1 [Example 76] | > 10000 nM
13 | Cc1ccc(CCCO)cc1-c1ccnc(NC(=O)c2nnc(Cc3ccccc3)[nH]2)c1 [Example 483, 5-benzyl-N-(4-(5-(3-hydroxylpropyl)-2-methylphenyl)pyridin-2-yl)-4H-1,2,4-triazole-3-carboxamide] | 100 to 1000 nM
14 | CC(C)(O)COc1ccc(C(F)(F)F)c(-c2ccnc(NC(=O)c3nnc(Cc4ccccc4)[nH]3)c2)c1 [Example 264, 5-benzyl-N-(4-(5-(2-hydroxyl-2-methylpropoxy)-2-(trifluoromethyl)phenyl)pyridin-2-yl)-4H-1,2,4-triazole-3-carboxamide] | ≤ 100 nM
15 | O=C(Nc1cc(-c2cc(OCCC3CCOCC3)ccc2C(F)(F)F)ncn1)c1nnc(Cc2ccccc2F)[nH]1 [Example 459, 5-(2-fluorobenzyl)-N-(6-(5-(2-(tetrahydro-2H-pyran-4-yl)ethoxy)-2-(trifluoromethyl)phenyl)pyrimidin-4-yl)-4H-1,2,4-triazole-3-carboxamide] | ≤ 100 nM
16 | Cc1ccc(OCCCC(C)(C)O)cc1-c1ccnc(NC(=O)c2nnc(Cc3ccc(F)c(Cl)c3)[nH]2)c1 [Example 206, 5-(3-chloro-4-fluorobenzyl)-N-(4-(5-((4-hydroxy-4-methylpentyl)oxy)-2-methylphenyl)pyridin-2-yl)-4H-1,2,4-triazole-3-carboxamide] | 100 to 1000 nM
17 | C#Cc1ccc(OCCOC(C)(C)C)cc1-c1ccnc(NC(=O)c2nnc(Cc3ccccc3)[nH]2)c1 [Example 311, 5-benzyl-N-(4-(5-(2-(tert-butoxy)ethoxy)-2-ethynylphenyl)pyridin-2-yl)-4H-1,2,4-triazole-3-carboxamide] | 100 to 1000 nM
18 | Cc1ccc(OCCCC(C)(C)O)cc1-c1cc(NC(=O)c2nnc(Cc3cc(F)ccc3F)[nH]2)ncn1 [Example 436, 5-(2,5-difluorobenzyl)-N-(6-(5-((4-hydroxy-4-methylpentyl)oxy)-2-methylphenyl)pyrimidin-4-yl)-4H-1,2,4-triazole-3-carboxamide] | ≤ 100 nM
19 | Cc1ccc(OCCCC(C)(C)O)cc1-c1ccnc(NC(=O)c2nnc(CC3CCCC3)[nH]2)c1 [Example 173, 5-(cyclopentylmethyl)-N-(4-(5-((4-hydroxy-4-methylpentyl)oxy)-2-methylphenyl)pyridin-2-yl)-4H-1,2,4-triazole-3-carboxamide] | ≤ 100 nM
20 | O=C(Nc1cc(-c2cc(OCC3CCOCC3)ccc2Cl)c(Cl)cn1)c1nnc(CC2CCCCC2)[nH]1 [Example 425, N-(5-chloro-4-(2-chloro-5-((tetrahydro-2H-pyran-4-yl)methoxy)phenyl)pyridin-2-yl)-5-(cyclohexylmethyl)-4H-1,2,4-triazole-3-carboxamide] | 100 to 1000 nM
21 | O=C(Nc1cc(-c2cc(OCCCCO)ccc2C(F)(F)F)ccn1)c1nnc(Cc2ccccc2F)[nH]1 [Example 273, 5-(2-fluorobenzyl)-N-(4-(5-(4-hydroxybutoxy)-2-(trifluoromethyl)phenyl)pyridin-2-yl)-4H-1,2,4-triazole-3-carboxamide] | ≤ 100 nM
22 | CC(C)(O)CCCCOc1ccc(C(F)(F)F)c(-c2ccnc(NC(=O)c3nnc(CC4CCCC4)[nH]3)c2)c1 [Example 270, 5-(cyclopentylmethyl)-N-(4-(5-((5-hydroxyl-5-methylhexyl)oxy)-2-(trifluoromethyl)phenyl)pyridin-2-yl)-4H-1,2,4-triazole-3-carboxamide] | ≤ 100 nM
23 | O=C(Nc1cc(-c2ccccc2C2CC2)ccn1)c1nnc(Cc2ccccc2)[nH]1 [Example 8, 5-benzyl-N-(4-(2-cyclopropylphenyl)pyridin-2-yl)-4H-1,2,4-triazole-3-carboxamide] | 1000 to 10000 nM
24 | Cc1ccc(OCCN2CCCCC2)cc1-c1ccnc(NC(=O)c2nnc(Cc3ccccc3F)[nH]2)c1 [Example 229, 5-(2-fluorobenzyl)-N-(4-(2-methyl-5-(2-(piperidin-1-yl)ethoxy)phenyl)pyridin-2-yl)-4H-1,2,4-triazole-3-carboxamide] | 100 to 1000 nM
